Laboratory results as given in patent US20020049223A1, “Quinoline and naphthyridine carboxylic acid antibacterials” (priority 1999, published 2002).
Counter-ions that a name gives are not always drawn.

Columns and labels:
Test in all cases: Assay B: in vitro antibacterial activity, broth microdilution MIC (NCCLS)
Assay type in all cases: cell-based
Escherichia coli JUHL = conditions: Table 2, Assay B, cation-adjusted Mueller Hinton broth, 35° C., 16 to 20 hr; code D = Escherichia coli JUHL; unit assumed
Description: (§1) Assay B. Determination of Biological Activity In Vitro Assay of Antibacterial Activity
(§2) Representative compounds of the invention were assayed in vitro for antibacterial activity. The susceptibilities of aerobic, nonfastidious species were determined visually by broth microdilution as described by the National Committee for Clinical Laboratory Standards (NCCLS) (National Committee for Clinical Laboratory Standards. 1997. Methods for dilution antimicrobial susceptibility tests for bacteria that grow aerobically. Approved standard M7-A4. National Committee for Clinical Laboratory Standards. Wayne, Pa.). In brief, serial two-fold dilutions of test compounds were made in cation-adjusted Mueller Hinton broth at two-times the final concentration. Inocula were prepared from overnight cultures of test strains. Tests were inoculated with a suspension of bacteria in Mueller Hinton broth to achieve a final density of approximately 5×10^5 CFU/mL. Tests were incubated at 35° C. in ambient air for 16 to 20 hr. Minimum Inhibitory Concentrations (MICs) were determined as the lowest drug concentration completely inhibiting growth. Ciprofloxacin was included as a control. For testing S. pneumoniae, the cation-adjusted Mueller Hinton broth was supplemented with 3% lysed horse blood and the incubation period was extended to 20 to 24 hr. For testing H. influenzae, the cation-adjusted Mueller Hinton broth was supplemented with 5 g/L yeast extract, […] and 15 mg/L NAD and incubation was extended to 20 to 24 hr..

[1] = test system: Staphylococcus aureus ATCC 6538P; conditions: Table 2, Assay B, cation-adjusted Mueller Hinton broth, 35° C., 16 to 20 hr; code A = Staphylococcus aureus ATCC 6538P; unit assumed
Description: as §1, §2

[2] = test system: Streptococcus pneumoniae ATCC 6303; conditions: Table 2, Assay B, Mueller Hinton broth with 3% lysed horse blood, 20 to 24 hr; code F = Streptococcus pneumoniae ATCC 6303; unit assumed
Description: as §1, §2

[3] = test system: Haemophilus influenzae DILL AMP R; conditions: Table 2, Assay B, Mueller Hinton broth with yeast extract, hematin and NAD, 20 to 24 hr; code E = Haemophilus influenzae DILL AMP R; unit assumed
Description: as §1, §2

[4] = test system: Enterococcus faecalis PIU 1967; conditions: Table 2, Assay B, cation-adjusted Mueller Hinton broth, 35° C., 16 to 20 hr; code B = Enterococcus faecalis PIU 1967; unit assumed
Description: as §1, §2

Row | SMILES | Antibacterial Activity (MIC's), D (Escherichia coli JUHL) [µg/mL] | Antibacterial Activity (MIC's), A [1] [µg/mL] | Antibacterial Activity (MIC's), F [2] [µg/mL] | Antibacterial Activity (MIC's), E [3] [µg/mL] | Antibacterial Activity (MIC's), B [4] [µg/mL]
1 | COc1c(-c2cc3c(s2)CCCC3=NNC(C)=O)ccc2c(=O)c(C(=O)O)cn(C3CC3)c12 [Example 96, 7-((4E/Z)-4-(acetylhydrazono)-4,5,6,7-tetrahydro-1-benzothien-2-yl)-1-cyclopropyl-8-methoxy-4-oxo-1,4-dihydro-3-quinolinecarboxylic acid] | 1 | < 0.004 | 0.03 | 0.03 | 0.5
2 | O=C(O)c1cn(C2CC2)c2c(OC(F)F)c(-c3cc4c(s3)CCCC4O)ccc2c1=O (centres unmarked) [Example 99, 1-cyclopropyl-8-(difluoromethoxy)-7-(4-hydroxy-4,5,6,7-tetrahydro-1-benzothien-2-yl)-4-oxo-1,4-dihydro-3-quinolinecarboxylic acid] | 0.25 | 0.015 | 0.06 | 0.015 | 0.125
3 | Cl.NC1CCCc2sc(-c3ccc4c(=O)c(C(=O)O)cn(C5CC5)c4c3OC(F)F)cc21 (centres unmarked) [Example 101, 7-(4-amino-4,5,6,7-tetrahydro-1-benzothien-2-yl)-1-cyclopropyl-8-(difluoromethoxy)-4-oxo-1,4-dihydro-3-quinolinecarboxylic acid hydrochloride] | 0.125 | 0.03 | 0.03 | 0.015 | 0.125
4 | COc1c(-c2cc3c(s2)CCCC3NCc2cccc(F)c2)ccc2c(=O)c(C(=O)O)cn(C3CC3)c12 (centres unmarked) [Example 104, 1-cyclopropyl-7-(4-((3-fluorobenzyl)amino)-4,5,6,7-tetrahydro-1-benzothien-2-yl)-8-methoxy-4-oxo-1,4-dihydro-3-quinolinecarboxylic acid hydrochloride] | 2 | 0.25 | 0.5 | 0.25 | 1
5 | COc1c(-c2cc3c(s2)CCCC3=NN(C)C(N)=S)ccc2c(=O)c(C(=O)O)cn(C3CC3)c12 [Example 105, 7-((4E/Z)-4-[(aminocarbothioyl)(methyl)hydrazono)-4,5,6,7-tetrahydro-1-benzothien-2-yl)-1-cyclopropyl-8-methoxy-4-oxo-1 4-dihydro-3-quinolinecarboxylic acid] | 1 | 0.03 | 0.03 | 0.06 | 0.25
6 | CNC1CCCc2sc(-c3ccc4c(=O)c(C(=O)O)cn(C5CC5)c4c3OC(F)F)cc21 (centres unmarked) [Example 107, 1-cyclopropyl-8-(difluoromethoxy)-7-(4-(methylamino)-4,5,6,7-tetrahydro-1-benzothien-2-yl)-4-oxo-1,4-dihydro-3-quinolinecarboxylic acid hydrochloride] | 0.25 | 0.06 | 0.06 | 0.06 | 0.5
7 | CNC1CCCc2sc(-c3nc4c(cc3F)c(=O)c(C(=O)O)cn4C3CC3)cc21 (centres unmarked) [Example 108, 1-cyclopropyl-6-fluoro-7-(4-(methylamino)-4,5,6,7-tetrahydro-1-benzothien-2-yl)-4-oxo-1,4-dihydro[1,8]naphthyridine-3-carboxylic acid hydrochloride] | 0.03 | 0.015 | 0.25 | 0.008 | 1
8 | COc1c(-c2cc3c(s2)CCCC3CO)ccc2c(=O)c(C(=O)O)cn(C3CC3)c12 (centres unmarked) [Example 110, 1-cyclopropyl-7-(4-(hydroxymethyl)-4,5,6,7-tetrahydro-1-benzothien-2-yl)-8-methoxy-4-oxo-1,4-dihydro-3-quinolinecarboxylic acid] | 0.25 | 0.004 | 0.06 | 0.015 | 0.06

Now from value to compound:

Row | Antibacterial Activity (MIC's), D (Escherichia coli JUHL) [µg/mL] | Antibacterial Activity (MIC's), A [1] [µg/mL] | Antibacterial Activity (MIC's), F [2] [µg/mL] | Antibacterial Activity (MIC's), E [3] [µg/mL] | Antibacterial Activity (MIC's), B [4] [µg/mL] | SMILES
9 | 2 | 0.125 | 1 | 0.5 | 1 | COc1c(-c2cc3c(s2)CCCC3n2cccc2)ccc2c(=O)c(C(=O)O)cn(C3CC3)c12 (centres unmarked) [Example 89, 1-cyclopropyl-8-methoxy-4-oxo-7-(4-(1H-pyrrol-1-yl)-4,5,6,7-tetrahydro-1-benzothien-2-yl)-1,4-dihydro-3-quinolinecarboxylic acid]
10 | 1 | 0.03 | 0.5 | 0.06 | 0.25 | COc1c(-c2cc3c(s2)CCCC3=NN2CCN(C)CC2)ccc2c(=O)c(C(=O)O)cn(C3CC3)c12 [Example 92, 1-cyclopropyl-8-methoxy-7-((4E/Z)-4-((4-methyl-1-piperazinyl)imino)-4,5,6,7-tetrahydro-1-benzothien-2-yl)-4-oxo-1,4-dihydro-3-quinolinecarboxylic acid]
11 | 1 | 0.125 | 0.5 | 0.25 | 1 | COc1c(-c2cc3c(s2)CCCC3NCc2cccnc2)ccc2c(=O)c(C(=O)O)cn(C3CC3)c12.Cl.Cl (centres unmarked) [Example 94, 1-cyclopropyl-8-methoxy-4-oxo-7-(4-((3-pyridinylmethyl)amino)-4,5,6,7-tetrahydro-1-benzothien-2-yl)-1,4-dihydro-3-quinolinecarboxylic acid dihydrochloride]
12 | 1 | 0.125 | 0.5 | 0.25 | 0.5 | COc1c(-c2cc3c(s2)CCCC3NCc2ccccc2)ccc2c(=O)c(C(=O)O)cn(C3CC3)c12.Cl (centres unmarked) [Example 97, 7-(4-(benzylamino)-4,5,6,7-tetrahydro-1-benzothien-2-yl)-1-cyclopropyl-8-methoxn-4-oxo-1,4-dihydro-3-quinolinecarboxylic acid hydrochloride]
13 | 0.25 | 0.06 | 0.03 | 0.125 | 0.5 | COc1c(-c2cc3c(s2)CCCC3=NNC2=NCCN2)ccc2c(=O)c(C(=O)O)cn(C3CC3)c12 [Example 100, 1-cyclopropyl-7-((4E/Z)-4-(4,5-dihydro-1H-imidazol-2-ylhydrazono)-4,5,6,7-tetrahydro-1-benzothien-2-yl)-8-methoxv-4-oxo-1,4-dihydro-3-quinolinecarboxylic acid]
14 | 8 | 0.25 | 0.5 | 0.03 | 1 | COc1c(-c2cc3c(s2)S(=O)(=O)N(C)CC3O)ccc2c(=O)c(C(=O)O)cn(C3CC3)c12 (centres unmarked) [Example 102, 1-cyclopropyl-7-(4-hydroxy-2-methyl-1,1-dioxido-3,4-dihydro-2H-thieno[3,2-e][1,2]thiazin-6-yl)-8-methoxy-4-oxo-1,4-dihydro-3-quinolinecarboxylic acid]
15 | 0.5 | 0.08 | 0.125 | 0.06 | 0.125 | COc1c(-c2cc3c(s2)CCC(C)C3=O)ccc2c(=O)c(C(=O)O)cn(C3CC3)c12 (centres unmarked) [Example 106, 1-cyclopropyl-8-methoxy-7-(5-methyl-4-oxo-4,5,6,7-tetrahydro-1-benzothien-2-yl)-4-oxo-1,4-dihydro-3-quinolinecarboxylic acid]
16 | 8 | 0.125 | 0.5 | 0.125 | 2 | COc1c(-c2cc3c(s2)S(=O)(=O)N(C)CC3N)ccc2c(=O)c(C(=O)O)cn(C3CC3)c12.Cl (centres unmarked) [Example 109, 7-(4-amino-2-methyl-1,1-dioxido-3,4-dihydro-2H-thieno[3,2-e][1,2]thiazin-6-yl)-1-cyclopropyl-8-methoxy-4-oxo-1,4-dihydro-3-quinolinecarboxylic acid hydrochloride]
